Laboratory results as given in patent US4360458A, “Antitumor antibacterial agents” (priority 1980, dated 1982).
≈ marks a conversion by molar mass, not a printed value.

How the values were obtained:
[1] = tested on: lysogenic bacterium; experiment: Prophage induction in lysogenic bacterium (ILB); type: cell-based; conditions: up to a concentration of 100 mcg./ml
Method: The activity of prophage induction in lysogenic bacterium (ILB) was determined for BBM-928 components.

[2] = tested on: C. neoformans; experiment: MIC, serial agar dilution method; type: cell-based; conditions: nutrient agar pH 7, overnight 37° C.
Method: (§1) Antimicrobial activity of BBM-928 components was determined against a variety of bacteria and fungi by serial agar dilution method in nutrient agar at pH 7 using Steer's multi-inoculating apparatus. The inoculum size was standardized to apply a 0.0025-ml aliquot of test organisms containing approximately 10^4 cell/ml for all bacteria and fungi except acid-fast bacteria for which a 10^6 cell/ml suspension was used.

[3] = tested on: S. pyogenes S-23; experiment: MIC, serial agar dilution method; type: cell-based; conditions: nutrient agar pH 7, overnight 37° C.
Method: as §1

[4] = tested on: B. megaterium D2; experiment: MIC, serial agar dilution method; type: cell-based; conditions: nutrient agar pH 7, overnight 37° C.
Method: as §1

[5] = tested on: P. morganii A9553; experiment: MIC, serial agar dilution method; type: cell-based; conditions: nutrient agar pH 7, overnight 37° C.
Method: as §1

[6] = tested on: S. lutea PCI 1001; experiment: MIC, serial agar dilution method; type: cell-based; conditions: nutrient agar pH 7, overnight 37° C.
Method: as §1

[7] = tested on: K. pneumoniae D-11; experiment: MIC, serial agar dilution method; type: cell-based; conditions: nutrient agar pH 7, overnight 37° C.
Method: as §1

[8] = tested on: M. phlei D88; experiment: MIC, serial agar dilution method; type: cell-based; conditions: nutrient agar pH 7, overnight 37° C., 10^6 cell/ml inoculum
Method: as §1

[9] = tested on: A. faecalis ATCC 8750; experiment: MIC, serial agar dilution method; type: cell-based; conditions: nutrient agar pH 7, overnight 37° C.
Method: as §1

[10] = tested on: M. flavus D12; experiment: MIC, serial agar dilution method; type: cell-based; conditions: nutrient agar pH 7, overnight 37° C.
Method: as §1

[11] = tested on: S. marcescens A20019; experiment: MIC, serial agar dilution method; type: cell-based; conditions: nutrient agar pH 7, overnight 37° C.
Method: as §1

[12] = tested on: C. xerosis 53K-1; experiment: MIC, serial agar dilution method; type: cell-based; conditions: nutrient agar pH 7, overnight 37° C.
Method: as §1

[13] = tested on: M. smegmatis 607 D87; experiment: MIC, serial agar dilution method; type: cell-based; conditions: nutrient agar pH 7, overnight 37° C., 10^6 cell/ml inoculum
Method: as §1

[14] = tested on: C. arbicans IAM 4888; experiment: MIC, serial agar dilution method; type: cell-based; conditions: nutrient agar pH 7, overnight 37° C.
Method: as §1

[15] = tested on: P. aeruginosa A9930; experiment: MIC, serial agar dilution method; type: cell-based; conditions: nutrient agar pH 7, overnight 37° C.
Method: as §1

[16] = tested on: P. mirabilis A9554; experiment: MIC, serial agar dilution method; type: cell-based; conditions: nutrient agar pH 7, overnight 37° C.
Method: as §1

[17] = tested on: B. subtilis PCI 219; experiment: MIC, serial agar dilution method; type: cell-based; conditions: nutrient agar pH 7, overnight 37° C.
Method: as §1

[18] = tested on: P. vulgaris A9436; experiment: MIC, serial agar dilution method; type: cell-based; conditions: nutrient agar pH 7, overnight 37° C.
Method: as §1

[19] = tested on: S. aureus 209P; experiment: MIC, serial agar dilution method; type: cell-based; conditions: nutrient agar pH 7, overnight 37° C.
Method: as §1

[20] = tested on: E. coli NIHJ; experiment: MIC, serial agar dilution method; type: cell-based; conditions: nutrient agar pH 7, overnight 37° C.
Method: as §1

[21] = tested on: Lewis Lung (LL) carcinoma; experiment: Antitumor activity, intraperitoneally implanted tumor; type: in vivo, mouse
Method: (§2) Comparative testing of BBM-928 components A, B, C and D with mitomycin C for antitumor activity was carried out with the intraperitoneally implanted tumors: P388 leukemia, L1210 leukemia, B16 melamoma, Lewis Lung (LL) carcinoma, and sarcoma 180 ascites (S180). […] By varying dosage, the minimum effective dose (MED) was determined which provided a median survival time value for the treated animals at least 1.25 times greater than a control group. This level of activity is considered to be a measure of significant antitumor activity. […] Expt. Path.

[22] = tested on: P388 leukemia; experiment: as above; type: in vivo, mouse
Method: as §2

[23] = tested on: sarcoma 180 ascites (S180); experiment: as above; type: in vivo, mouse
Method: as §2

[24] = tested on: B16 melamoma; experiment: as above; type: in vivo, mouse
Method: as §2

[25] = tested on: L1210 leukemia; experiment: as above; type: in vivo, mouse
Method: as §2

[26] = tested on: B. anthracis A9504; type: cell-based; conditions: nutrient agar pH 7, overnight 37° C.
[27] = Intraperitoneal LD50, method of Van der Waerden
[28] = daily treatments from day 1 to day 9
[29] = single treatment on day 1, median survival time at least 1.25 times control

For `COc1ccc2nc(C(=O)N[C@@H]3COC(=O)[C@H](C(C)(C)O)N(C)C(=O)CN(C)C(=O)CNC(=O)[C@@H]4[C@@H](OC(C)=O)CC=NN4C(=O)[C@H](NC(=O)c4nc5ccc(OC)cc5cc4O)COC(=O)[C@H](C(C)(C)O)N(C)C(=O)CN(C)C(=O)CNC(=O)[C@@H]4[C@@H](OC(C)=O)CC=NN4C3=O)c(O)cc2c1` [BBM-928A], the “ILB activity (prophage induction in lysogenic bacterium)” value (from here on “ILB activity”) [1] was “No significant ILB activity”, the MIC [2] was 100 µg/mL (≈ 70.1 µM) and the MIC [3] was 6.3 µg/mL (≈ 4.41 µM). The MIC [4] was 25 µg/mL (≈ 17.5 µM), the MIC [5] was over 100 µg/mL and the MIC [6] was 6.3 µg/mL (≈ 4.41 µM). The MIC [7] was over 100 µg/mL, the MIC [8] was 12.5 µg/mL (≈ 8.76 µM) and the MIC [9] was over 100 µg/mL. The MIC [10] was 12.5 µg/mL (≈ 8.76 µM), the MIC [11] was over 100 µg/mL and the MIC [12] was 25 µg/mL (≈ 17.5 µM). It also gave an MIC [13] of 25 µg/mL (≈ 17.5 µM), an MIC [14] of over 100 µg/mL and an MIC [15] of over 100 µg/mL. It also gave an MIC [16] of over 100 µg/mL, an MIC [17] of 25 µg/mL (≈ 17.5 µM) and an MIC [18] of over 100 µg/mL. The MIC [19] was 12.5 µg/mL (≈ 8.76 µM), the MIC [20] was over 100 µg/mL and the “Activity Ratio (BBM-928A vs. Mitomycin C)” value (“Activity Ratio” for short) [21, 28] was 100. For the same compound, the “Minimum Effective Dose (MED)” value [21, 28] was 0.003 mg/kg/day, the “Activity Ratio” value ([21]; single treatment on day 1) was 10 and the “Minimum Effective Dose (MED)” value [21, 29] was 0.03 mg/kg/day. For the same compound, the “Activity Ratio” value [22, 28] was 100, the “Minimum Effective Dose (MED)” value [22, 28] was 0.001 mg/kg/day and the “Activity Ratio” value ([22]; single treatment on day 1) was 30. For the same compound, the “Minimum Effective Dose (MED)” value [22, 29] was 0.003 mg/kg/day, the “Activity Ratio” value [23, 28] was 100 and the “Minimum Effective Dose (MED)” value [23, 28] was 0.0001 mg/kg/day. The “Activity Ratio” value ([23]; single treatment on day 1) was 100, the “Minimum Effective Dose (MED)” value [23, 29] was 0.003 mg/kg/day and the “Activity Ratio” value [24, 28] was 100. For the same compound, the “Minimum Effective Dose (MED)” value [24, 28] was 0.003 mg/kg/day, the “Activity Ratio” value ([24]; single treatment on day 1) was 300 and the “Minimum Effective Dose (MED)” value [24, 29] was 0.003 mg/kg/day. For the same compound, the “Activity Ratio” value [25, 28] was 100, the “Minimum Effective Dose (MED)” value [25, 28] was 0.003 mg/kg/day and the “Minimum Effective Dose (MED)” value [25, 29] was over 0.1 mg/kg/day. For the same compound, the MIC [26] was 6.3 µg/mL (≈ 4.41 µM), the “LD50, i.p.” value [27, 28] was 0.013 mg/kg/day and the “LD50, i.p.” value ([27]; single treatment on day 1) was 0.13 mg/kg/day.

With `COc1ccc2nc(C(=O)N[C@@H]3COC(=O)[C@H](C(C)(C)O)N(C)C(=O)CN(C)C(=O)CNC(=O)[C@@H]4[C@@H](O)CC=NN4C(=O)[C@H](NC(=O)c4nc5ccc(OC)cc5cc4O)COC(=O)[C@H](C(C)(C)O)N(C)C(=O)CN(C)C(=O)CNC(=O)[C@@H]4[C@@H](OC(C)=O)CC=NN4C3=O)c(O)cc2c1` [BBM-928B] the “ILB activity” value [1] was “No significant ILB activity”, the MIC [2] was over 100 µg/mL and the MIC [3] was 12.5 µg/mL (≈ 9.02 µM). For the same compound, the MIC [4] was 25 µg/mL (≈ 18 µM), the MIC [5] was over 100 µg/mL and the MIC [6] was 12.5 µg/mL (≈ 9.02 µM). It also gave an MIC [7] of over 100 µg/mL, an MIC [8] of 12.5 µg/mL (≈ 9.02 µM) and an MIC [9] of over 100 µg/mL. For the same compound, the MIC [10] was 25 µg/mL (≈ 18 µM), the MIC [11] was over 100 µg/mL and the MIC [12] was 50 µg/mL (≈ 36.1 µM). For the same compound, the MIC [13] was 25 µg/mL (≈ 18 µM), the MIC [14] was over 100 µg/mL and the MIC [15] was over 100 µg/mL. The MIC [16] was over 100 µg/mL, the MIC [17] was 25 µg/mL (≈ 18 µM) and the MIC [18] was over 100 µg/mL. For the same compound, the MIC [19] was 25 µg/mL (≈ 18 µM), the MIC [20] was over 100 µg/mL and the “Minimum Effective Dose (MED)” value [22, 29] was 0.1 mg/kg/day. The MIC [26] was 12.5 µg/mL (≈ 9.02 µM) and the “LD50, i.p.” value ([27]; single treatment on day 1) was 0.18 mg/kg/day.

For `COc1ccc2nc(C(=O)N[C@@H]3COC(=O)[C@H](C(C)(C)O)N(C)C(=O)CN(C)C(=O)CNC(=O)[C@@H]4[C@@H](O)CC=NN4C(=O)[C@H](NC(=O)c4nc5ccc(OC)cc5cc4O)COC(=O)[C@H](C(C)(C)O)N(C)C(=O)CN(C)C(=O)CNC(=O)[C@@H]4[C@@H](O)CC=NN4C3=O)c(O)cc2c1` [BBM-928C], the “ILB activity” value [1] was “No significant ILB activity”, the MIC [2] was 100 µg/mL (≈ 74.4 µM) and the MIC [3] was 25 µg/mL (≈ 18.6 µM). It also gave an MIC [4] of 50 µg/mL (≈ 37.2 µM), an MIC [5] of over 100 µg/mL and an MIC [6] of 50 µg/mL (≈ 37.2 µM). For the same compound, the MIC [7] was over 100 µg/mL, the MIC [8] was 12.5 µg/mL (≈ 9.31 µM) and the MIC [9] was over 100 µg/mL. It also gave an MIC [10] of 50 µg/mL (≈ 37.2 µM), an MIC [11] of over 100 µg/mL and an MIC [12] of over 100 µg/mL. For the same compound, the MIC [13] was 25 µg/mL (≈ 18.6 µM), the MIC [14] was over 100 µg/mL and the MIC [15] was over 100 µg/mL. For the same compound, the MIC [16] was over 100 µg/mL, the MIC [17] was 100 µg/mL (≈ 74.4 µM) and the MIC [18] was over 100 µg/mL. For the same compound, the MIC [19] was 50 µg/mL (≈ 37.2 µM), the MIC [20] was over 100 µg/mL and the MIC [26] was 25 µg/mL (≈ 18.6 µM). For the same compound, the “LD50, i.p.” value ([27]; single treatment on day 1) was 0.81 mg/kg/day.

For `CO[C@@]12[C@H](COC(N)=O)C3=C(C(=O)C(C)=C(N)C3=O)N1C[C@@H]1N[C@@H]12` [Mitomycin C, reference compound], the “Minimum Effective Dose (MED)” value [21, 28] was 0.3 mg/kg/day, the “Minimum Effective Dose (MED)” value [21, 29] was 0.3 mg/kg/day and the “Minimum Effective Dose (MED)” value [22, 28] was 0.1 mg/kg/day. The “Minimum Effective Dose (MED)” value [22, 29] was 0.1 mg/kg/day, the “Minimum Effective Dose (MED)” value [23, 28] was 0.03 mg/kg/day and the “Minimum Effective Dose (MED)” value [23, 29] was 0.3 mg/kg/day. The “Minimum Effective Dose (MED)” value [24, 28] was 0.3 mg/kg/day, the “Minimum Effective Dose (MED)” value [24, 29] was 1 mg/kg/day and the “Minimum Effective Dose (MED)” value [25, 28] was 0.3 mg/kg/day. For the same compound, the “Minimum Effective Dose (MED)” value [25, 29] was 3 mg/kg/day.
